Key:
[1] = tested on: U2OS; assay: cell viability relative to DMSO; higher = less toxic; details: 72 h
[2] = tested on: Vero E6; assay: as above; details: 72 h
[3] = tested on: Calu-3; assay: as above; details: 72 h
[4] = tested on: Caco-2; assay: as above; details: 72 h
[5] = tested on: HepG2; assay: as above; details: 72 h
[6] = tested on: A549-ACE2 infected with SARS-CoV-2; assay: morphology score (similarity to uninfected cells); higher = more like uninfected cells; details: 24 h
[7] = tested on: A549-ACE2 infected with SARS-CoV-2; assay: cell count relative to DMSO; higher = less toxic; details: 24 h
[8] = tested on: A549-ACE2; assay: drug-induced phospholipidosis relative to tamoxifen; higher = more phospholipidosis
[9] = tested on: A549-ACE2 infected with SARS-CoV-2; assay: SARS-CoV-2 infection rate relative to DMSO; higher = more infection; details: 24 h
[10] = tested on: U2OS; assay: drug sensitivity score (DSS) for viability; higher = more toxic; extreme values may be limits of the assay; details: 72 h
[11] = tested on: Vero E6; assay: as above; details: 72 h
[12] = tested on: Calu-3; assay: as above; details: 72 h
[13] = tested on: Caco-2; assay: as above; details: 72 h
[14] = tested on: HepG2; assay: as above; details: 72 h
[15] = tested on: U2OS; assay: relative viability EC50 (midpoint between 100% and the lowest measured viability); higher = less toxic; details: 72 h
[16] = tested on: Vero E6; assay: as above; details: 72 h
[17] = tested on: Calu-3; assay: as above; details: 72 h
[18] = tested on: Caco-2; assay: as above; details: 72 h
[19] = tested on: HepG2; assay: as above; details: 72 h

c1ccc(-c2ccc(C(c3ccccc3)n3ccnc3)cc2)cc1 (stereo not drawn) [bifonazole]
Details	SARS-CoV-2 infection rate, [9] [%]	cell count, [7] [%]	cell viability, [1] [%]	cell viability, [2] [%]	cell viability, [3] [%]	cell viability, [4] [%]	cell viability, [5] [%]	morphology score, [6]
1 nM	–	–	96.9	85.9	98.4	98	98.2	–
10 nM	–	–	95.9	91.2	95	99.7	97.1	–
100 nM	–	–	97.2	86.5	106	96.1	91.8	–
0.3 µM	91	99	–	–	–	–	–	0.26
1000 nM	–	–	95.2	91.5	97.1	94.9	98.6	–
3 µM	103	112	–	–	–	–	–	-0.04
10000 nM	–	–	94.7	100	99.1	78.7	93.6	–
10 µM	106	111	–	–	–	–	–	0.19
30 µM	89	102	–	–	–	–	–	0.57

drug-induced phospholipidosis [%], [8]
Details	0.3 µM	0.833333 µM	3.33333 µM	6.66667 µM	10 µM	30 µM
24 h	-0.45	-9.45	-4.39	3.56	6	40.1
48 h	3.19	-4.19	2.93	5.02	14.4	44.7
72 h	2.27	-1.31	4.12	5.49	19.7	–

Details	drug sensitivity score	relative viability EC50 [µM]
[10]	0	–
[11]	0	–
[12]	0	–
[13]	1.2	–
[14]	0	–
[15]	–	> 10
[16]	–	> 10
[17]	–	> 10
[18]	–	> 10
[19]	–	> 10

CC(C)C[C@H](NC(=O)CNC(=O)c1cc(Cl)ccc1Cl)B1OC(=O)C(CC(=O)O)(CC(=O)O)O1 [ixazomib-citrate]
Details	SARS-CoV-2 infection rate, [9] [%]	cell count, [7] [%]	cell viability, [1] [%]	cell viability, [2] [%]	cell viability, [3] [%]	cell viability, [4] [%]	cell viability, [5] [%]	morphology score, [6]
1 nM	–	–	107	106	107	105	106	–
10 nM	–	–	106	102	103	103	107	–
100 nM	–	–	69.6	72.5	27.9	22.9	98	–
0.1 µM	81	97	–	–	–	–	–	0.41
0.3 µM	85	74	–	–	–	–	–	0.25
1000 nM	–	–	0.4	11.5	5.6	6.1	6.3	–
1 µM	47	69	–	–	–	–	–	0.3
3 µM	43	60	–	–	–	–	–	0.28
10000 nM	–	–	-0.3	4.8	4.8	7	0.3	–

Details	drug-induced phospholipidosis [%]
[8], 0.3 µM, 24 h	5.51

Details	drug sensitivity score	relative viability EC50 [µM]
[10]	22.4	–
[11]	19.6	–
[12]	25.5	–
[13]	25.9	–
[14]	17.2	–
[19]	–	0.358

C=C1C(=O)O[C@@H]2[C@H]3O[C@]3(C)CC/C=C(\C)CC[C@@H]12 [parthenolide-(alternate-stereo)]
Details	SARS-CoV-2 infection rate, [9] [%]	cell count, [7] [%]	cell viability, [1] [%]	cell viability, [2] [%]	cell viability, [3] [%]	cell viability, [4] [%]	cell viability, [5] [%]	morphology score, [6]
1 nM	–	–	100	102	102	98.5	102	–
10 nM	–	–	101	99.7	108	95.8	95.7	–
100 nM	–	–	99.4	102	97.3	96.8	103	–
0.1 µM	101	101	–	–	–	–	–	0.0167
0.3 µM	99.3	102	–	–	–	–	–	0.157
1000 nM	–	–	97.7	102	109	98.67	94.2	–
1 µM	104	100	–	–	–	–	–	-0.0567
3 µM	105	97.7	–	–	–	–	–	-0.3
10000 nM	–	–	12.2	52.3	128	45.4	22.5	–

drug-induced phospholipidosis [%], [8]
Details	0.3 µM	0.833333 µM	3.33333 µM	6.66667 µM	10 µM
24 h	1.51	0.313	6.15	18.1	24
48 h	1.04	-0.06	2.1	11.9	16.9
72 h	3.01	-1.59	-0.616	4.96	9.42

Details	drug sensitivity score	relative viability EC50 [µM]
[10]	5.23	–
[11]	2.37	–
[12]	0.733	–
[13]	3.07	–
[14]	5.27	–
[15]	–	2.94
[18]	–	2.99
[19]	–	2.48

C=C1/C(=C\C=C2/CCC[C@]3(C)[C@@H]([C@H](C)/C=C/C=C/C(O)(CC)CC)CC[C@@H]23)C[C@@H](O)C[C@@H]1O [seocalcitol]
cell viability [%]
Details	[1]	[2]	[3]	[4]	[5]
1 nM	99.9	96	107	98.5	104
10 nM	95.5	93.5	102	87.2	97.3
100 nM	105	88.7	99.2	97.4	99.3
1000 nM	96.5	96.6	95.7	98.5	112
10000 nM	89.6	96.7	94.9	97.4	99.4

Details	drug sensitivity score	relative viability EC50 [µM]
[10]	0	–
[11]	0	–
[12]	0	–
[13]	0	–
[14]	0	–
[15]	–	> 10
[16]	–	> 10
[17]	–	> 10
[18]	–	> 10
[19]	–	> 10

CCCC(=O)O [sodium-butyrate]
cell viability [%]
Details	[1]	[2]	[3]	[4]	[5]
1 nM	104	109	103	104	109
10 nM	102	101	95.8	95.8	91.8
100 nM	98.6	102	96.2	100	102
1000 nM	106	99.4	97.7	99.9	91.2
10000 nM	96.5	100	102	98.9	99.1

Details	drug sensitivity score	relative viability EC50 [µM]
[10]	0	–
[11]	0	–
[12]	0	–
[13]	0	–
[14]	0	–
[15]	–	> 10
[16]	–	> 10
[17]	–	> 10
[18]	–	> 10
[19]	–	> 10

COc1ccc(NS(=O)(=O)c2ccc(N)cc2)nn1 [sulfamethoxypyridazine]
cell viability [%]
Details	[1]	[2]	[3]	[4]	[5]
1 nM	99.9	103	93.3	97.9	99.7
10 nM	94.3	100	93.5	99.8	114
100 nM	97.4	97.1	100	94.8	110
1000 nM	101	98.6	97.4	101	97.2
10000 nM	99.7	104	95.6	98.2	98.8

Details	drug sensitivity score	relative viability EC50 [µM]
[10]	0	–
[11]	0	–
[12]	0	–
[13]	0	–
[14]	0	–
[15]	–	> 10
[16]	–	> 10
[17]	–	> 10
[18]	–	> 10
[19]	–	> 10

Reference: the supplement of paper PMC13380429
